According to the kinase profiling compilation of Christmann-Franck et al. (2016):

Experiments:
Assay in all cases: KINOMEscan competition binding
Settings in all cases: compound 10.0 µM
ALK (human) = ALK (human) (UniProt Q9UM73)
AXL (human) = AXL (human) (UniProt P30530)
CAMK2A (human) = CAMK2A (human) (UniProt Q9UQM7)
CDK13 (human) = CDK13 (human) (UniProt Q14004)
CDK4 CCND1 (human) = CDK4 CCND1 (human) (UniProt P11802+P24385)
CSNK1A1L (human) = CSNK1A1L (human) (UniProt Q8N752)
DYRK1B (human) = DYRK1B (human) (UniProt Q9Y463)
[1] = test system: EGFR (human), P00533 [A750P; 747-749 del]
[2] = test system: EGFR (human), P00533 [G719C]
[3] = test system: EGFR (human), P00533 [T790M]
EPHA3 (human) = EPHA3 (human) (UniProt P29320)
EPHA5 (human) = EPHA5 (human) (UniProt P54756)
EPHB1 (human) = EPHB1 (human) (UniProt P54762)
ERBB4 (human) = ERBB4 (human) (UniProt Q15303)
FER (human) = FER (human) (UniProt P16591)
FGFR2 (human) = FGFR2 (human) (UniProt P21802)
[4] = test system: FLT3 (human), P36888 [D835H]
[5] = test system: FLT3 (human), P36888 [D835Y]
FLT4 (human) = FLT4 (human) (UniProt P35916)
HIPK1 (human) = HIPK1 (human) (UniProt Q86Z02)
[6] = biological target: JAK2 JH1 catalytic (human) (UniProt O60674)
[7] = test system: KIT (human), P10721 [V559D]
MAP4K1 (human) = MAP4K1 (human) (UniProt Q92918)
MAPKAPK5 (human) = MAPKAPK5 (human) (UniProt Q8IW41)
MLTK (human) = MLTK (human) (UniProt Q9NYL2)
NEK3 (human) = NEK3 (human) (UniProt P51956)
NEK5 (human) = NEK5 (human) (UniProt Q6P3R8)
NTRK1 (human) = NTRK1 (human) (UniProt P04629)
OXSR1 (human) = OXSR1 (human) (UniProt O95747)
PKN3 (M.tuberculosis) = PKN3 (M.tuberculosis) (UniProt Q6P5Z2)
PLK3 (human) = PLK3 (human) (UniProt Q9H4B4)
PTK2B (human) = PTK2B (human) (UniProt Q14289)
RAF1 (human) = RAF1 (human) (UniProt P04049)
[8] = test system: RET (human), P07949 [V804L]
[9] = test system: RET (human), P07949 [V804M]
RIPK4 (human) = RIPK4 (human) (UniProt P57078)
STK3 (human) = STK3 (human) (UniProt Q13188)
TEK (human) = TEK (human) (UniProt Q02763)
TNNI3K (human) = TNNI3K (human) (UniProt Q59H18)
TRPM6 (human) = TRPM6 (human) (UniProt Q9BX84)
TXK (human) = TXK (human) (UniProt P42681)
[10] = biological target: TYK2 JH2 pseudokinase (human) (UniProt P29597)

Sequence of OXSR1 (human) (O95747 whole entry, looked up): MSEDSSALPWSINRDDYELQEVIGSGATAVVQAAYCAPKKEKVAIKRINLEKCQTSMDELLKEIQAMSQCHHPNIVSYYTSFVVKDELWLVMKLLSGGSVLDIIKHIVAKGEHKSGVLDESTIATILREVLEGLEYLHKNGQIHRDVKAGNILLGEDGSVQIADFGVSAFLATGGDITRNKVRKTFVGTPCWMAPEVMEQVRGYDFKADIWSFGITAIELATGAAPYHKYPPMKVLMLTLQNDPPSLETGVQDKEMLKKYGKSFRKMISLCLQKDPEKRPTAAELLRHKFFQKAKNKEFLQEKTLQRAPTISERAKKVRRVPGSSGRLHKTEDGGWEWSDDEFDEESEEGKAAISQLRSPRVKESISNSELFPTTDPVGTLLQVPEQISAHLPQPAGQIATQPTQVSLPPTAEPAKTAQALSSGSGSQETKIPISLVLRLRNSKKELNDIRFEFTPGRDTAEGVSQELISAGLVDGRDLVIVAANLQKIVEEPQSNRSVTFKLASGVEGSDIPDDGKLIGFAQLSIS
Sequence of STK3 (human) (Q13188 whole entry, looked up): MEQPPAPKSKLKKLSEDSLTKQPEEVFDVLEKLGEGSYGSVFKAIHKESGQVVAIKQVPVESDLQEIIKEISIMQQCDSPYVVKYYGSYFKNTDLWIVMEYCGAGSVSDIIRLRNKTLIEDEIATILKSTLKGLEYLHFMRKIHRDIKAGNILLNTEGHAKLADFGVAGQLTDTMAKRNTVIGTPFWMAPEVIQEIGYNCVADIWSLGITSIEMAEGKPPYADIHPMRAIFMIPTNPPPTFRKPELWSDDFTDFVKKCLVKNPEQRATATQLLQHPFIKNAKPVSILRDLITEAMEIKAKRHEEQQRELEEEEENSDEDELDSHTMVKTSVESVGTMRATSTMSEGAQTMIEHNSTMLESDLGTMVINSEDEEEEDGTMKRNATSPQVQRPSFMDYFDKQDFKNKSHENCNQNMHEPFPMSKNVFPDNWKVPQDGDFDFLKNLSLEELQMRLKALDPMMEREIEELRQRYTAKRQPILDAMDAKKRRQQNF
Sequence of RET (human), P07949 [V804M] (P07949 whole entry V804M, looked up): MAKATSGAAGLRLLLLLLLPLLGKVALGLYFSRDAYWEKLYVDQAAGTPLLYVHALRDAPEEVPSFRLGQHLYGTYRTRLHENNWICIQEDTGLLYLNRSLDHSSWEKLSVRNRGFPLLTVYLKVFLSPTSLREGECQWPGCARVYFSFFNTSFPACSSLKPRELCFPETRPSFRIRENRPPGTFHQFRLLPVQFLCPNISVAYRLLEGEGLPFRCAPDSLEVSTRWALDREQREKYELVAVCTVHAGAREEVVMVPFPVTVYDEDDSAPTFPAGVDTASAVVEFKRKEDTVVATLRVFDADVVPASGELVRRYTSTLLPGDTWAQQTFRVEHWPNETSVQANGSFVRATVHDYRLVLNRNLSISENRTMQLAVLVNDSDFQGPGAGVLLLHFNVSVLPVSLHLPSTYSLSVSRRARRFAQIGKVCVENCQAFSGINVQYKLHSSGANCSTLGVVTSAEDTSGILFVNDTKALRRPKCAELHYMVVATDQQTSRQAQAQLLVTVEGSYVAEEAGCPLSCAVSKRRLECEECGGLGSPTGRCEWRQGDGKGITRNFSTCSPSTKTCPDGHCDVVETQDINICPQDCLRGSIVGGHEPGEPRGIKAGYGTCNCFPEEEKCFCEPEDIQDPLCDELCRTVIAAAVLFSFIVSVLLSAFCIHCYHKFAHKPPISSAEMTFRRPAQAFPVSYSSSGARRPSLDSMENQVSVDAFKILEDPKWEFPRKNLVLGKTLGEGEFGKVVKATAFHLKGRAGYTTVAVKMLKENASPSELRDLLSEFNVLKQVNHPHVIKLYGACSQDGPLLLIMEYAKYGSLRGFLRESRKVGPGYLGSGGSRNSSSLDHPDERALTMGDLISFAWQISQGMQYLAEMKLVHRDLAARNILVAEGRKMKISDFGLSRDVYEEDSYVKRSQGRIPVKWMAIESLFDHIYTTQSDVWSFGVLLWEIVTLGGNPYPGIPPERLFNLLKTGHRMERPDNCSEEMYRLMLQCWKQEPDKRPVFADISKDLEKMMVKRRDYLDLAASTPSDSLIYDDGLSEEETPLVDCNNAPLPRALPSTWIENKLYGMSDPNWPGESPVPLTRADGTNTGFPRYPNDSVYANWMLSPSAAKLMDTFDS
Sequence of RAF1 (human) (P04049 whole entry, looked up): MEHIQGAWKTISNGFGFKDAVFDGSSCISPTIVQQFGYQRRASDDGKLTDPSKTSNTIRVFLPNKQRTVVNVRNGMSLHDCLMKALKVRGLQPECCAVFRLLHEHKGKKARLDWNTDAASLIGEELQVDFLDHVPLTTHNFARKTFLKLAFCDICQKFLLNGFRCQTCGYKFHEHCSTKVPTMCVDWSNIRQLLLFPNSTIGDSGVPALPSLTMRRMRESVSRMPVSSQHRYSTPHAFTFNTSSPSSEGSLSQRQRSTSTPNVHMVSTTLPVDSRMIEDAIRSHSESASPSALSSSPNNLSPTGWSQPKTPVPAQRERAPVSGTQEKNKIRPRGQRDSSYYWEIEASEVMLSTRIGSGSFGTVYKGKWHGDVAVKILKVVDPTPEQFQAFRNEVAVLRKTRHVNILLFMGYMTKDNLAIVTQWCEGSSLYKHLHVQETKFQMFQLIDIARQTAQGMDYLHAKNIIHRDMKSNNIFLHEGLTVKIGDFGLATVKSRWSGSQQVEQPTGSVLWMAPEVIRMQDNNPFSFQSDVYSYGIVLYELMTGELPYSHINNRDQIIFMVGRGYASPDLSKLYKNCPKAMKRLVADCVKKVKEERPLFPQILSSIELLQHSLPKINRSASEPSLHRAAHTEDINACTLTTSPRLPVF
Sequence of TRPM6 (human) (Q9BX84 whole entry, looked up): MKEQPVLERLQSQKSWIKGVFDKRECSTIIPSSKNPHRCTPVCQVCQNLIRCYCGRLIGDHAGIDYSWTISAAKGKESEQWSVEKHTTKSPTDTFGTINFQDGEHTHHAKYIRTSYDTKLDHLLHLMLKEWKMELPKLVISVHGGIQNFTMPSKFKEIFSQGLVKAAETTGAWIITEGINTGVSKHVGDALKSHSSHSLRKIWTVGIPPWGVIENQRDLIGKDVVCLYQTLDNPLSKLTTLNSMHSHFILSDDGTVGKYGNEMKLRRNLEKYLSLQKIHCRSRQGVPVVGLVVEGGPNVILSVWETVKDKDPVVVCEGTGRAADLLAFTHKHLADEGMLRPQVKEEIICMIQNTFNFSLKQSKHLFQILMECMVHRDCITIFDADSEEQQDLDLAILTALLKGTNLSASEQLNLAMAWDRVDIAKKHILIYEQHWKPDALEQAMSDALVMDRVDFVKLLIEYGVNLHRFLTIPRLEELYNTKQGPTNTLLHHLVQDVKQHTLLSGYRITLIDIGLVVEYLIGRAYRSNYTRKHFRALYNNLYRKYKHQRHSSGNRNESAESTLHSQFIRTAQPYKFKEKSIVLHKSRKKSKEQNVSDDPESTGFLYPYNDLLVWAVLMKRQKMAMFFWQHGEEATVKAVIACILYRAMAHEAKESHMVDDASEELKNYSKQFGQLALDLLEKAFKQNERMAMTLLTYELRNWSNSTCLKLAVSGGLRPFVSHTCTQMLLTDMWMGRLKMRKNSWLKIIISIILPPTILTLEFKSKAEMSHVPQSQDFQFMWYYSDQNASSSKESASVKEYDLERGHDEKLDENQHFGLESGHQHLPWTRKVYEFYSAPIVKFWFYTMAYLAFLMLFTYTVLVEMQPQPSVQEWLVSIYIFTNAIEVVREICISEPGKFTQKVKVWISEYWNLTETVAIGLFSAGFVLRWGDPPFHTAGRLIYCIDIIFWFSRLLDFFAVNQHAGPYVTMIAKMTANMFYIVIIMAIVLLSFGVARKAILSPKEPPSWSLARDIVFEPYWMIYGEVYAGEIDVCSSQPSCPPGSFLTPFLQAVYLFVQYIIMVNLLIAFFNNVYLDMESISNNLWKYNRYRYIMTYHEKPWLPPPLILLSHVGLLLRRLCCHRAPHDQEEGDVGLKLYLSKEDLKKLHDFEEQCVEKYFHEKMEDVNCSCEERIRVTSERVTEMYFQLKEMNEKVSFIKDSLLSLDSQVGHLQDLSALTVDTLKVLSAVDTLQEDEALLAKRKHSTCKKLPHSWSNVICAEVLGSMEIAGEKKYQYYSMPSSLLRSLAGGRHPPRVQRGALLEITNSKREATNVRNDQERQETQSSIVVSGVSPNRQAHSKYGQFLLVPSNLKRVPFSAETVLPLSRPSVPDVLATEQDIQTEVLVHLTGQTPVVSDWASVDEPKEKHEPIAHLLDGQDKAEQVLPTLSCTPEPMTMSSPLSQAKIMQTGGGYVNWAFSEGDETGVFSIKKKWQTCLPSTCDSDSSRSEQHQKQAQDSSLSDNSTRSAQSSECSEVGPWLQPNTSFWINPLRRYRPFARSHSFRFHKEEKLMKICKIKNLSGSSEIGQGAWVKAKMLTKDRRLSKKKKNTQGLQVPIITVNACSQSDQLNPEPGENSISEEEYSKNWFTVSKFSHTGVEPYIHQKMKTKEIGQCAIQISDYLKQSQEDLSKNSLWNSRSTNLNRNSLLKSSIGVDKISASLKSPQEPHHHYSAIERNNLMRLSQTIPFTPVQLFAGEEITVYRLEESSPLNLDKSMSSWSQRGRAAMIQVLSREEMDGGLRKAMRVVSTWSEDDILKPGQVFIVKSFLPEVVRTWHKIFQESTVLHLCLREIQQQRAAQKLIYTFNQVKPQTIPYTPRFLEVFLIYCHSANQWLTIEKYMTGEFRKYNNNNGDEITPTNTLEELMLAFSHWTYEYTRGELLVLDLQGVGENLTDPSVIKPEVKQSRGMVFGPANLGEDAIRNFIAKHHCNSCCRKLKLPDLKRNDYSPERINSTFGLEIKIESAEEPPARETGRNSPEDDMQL
Sequence of RET (human), P07949 [V804L] (P07949 whole entry V804L, looked up): as the sequence (P07949 whole entry V804M, looked up) above, with M804L counted along it

In the case of `Cc1cc([C@@H](C)Nc2ccccc2C(=O)O)c2nc(N3CCOCC3)cc(=O)n2c1`, the kinase still bound, per cent of control (ALK (human)) is reported as 100%, the kinase still bound, per cent of control (AXL (human)) is reported as 100% and the kinase still bound, per cent of control (CAMK2A (human)) is reported as 66%. It also gave a kinase still bound, per cent of control (CDK13 (human)) of 100%, a kinase still bound, per cent of control (CDK4 CCND1 (human)) of 38% and a kinase still bound, per cent of control (CSNK1A1L (human)) of 94%. It also gave a kinase still bound, per cent of control (DYRK1B (human)) of 100%, a kinase still bound, per cent of control [1] of 100% and a kinase still bound, per cent of control [2] of 100%. It also gave a kinase still bound, per cent of control [3] of 100%, a kinase still bound, per cent of control (EPHA3 (human)) of 85% and a kinase still bound, per cent of control (EPHA5 (human)) of 100%. The kinase still bound, per cent of control (EPHB1 (human)) was 99%, the kinase still bound, per cent of control (ERBB4 (human)) was 94% and the kinase still bound, per cent of control (FER (human)) was 81%. The kinase still bound, per cent of control (FGFR2 (human)) was 100%, the kinase still bound, per cent of control [4] was 32% and the kinase still bound, per cent of control [5] was 24%. For the same molecule, the kinase still bound, per cent of control (FLT4 (human)) was 100%, the kinase still bound, per cent of control (HIPK1 (human)) was 87% and the kinase still bound, per cent of control [6] was 71%. It also gave a kinase still bound, per cent of control [7] of 93%, a kinase still bound, per cent of control (MAP4K1 (human)) of 90% and a kinase still bound, per cent of control (MAPKAPK5 (human)) of 90%. It also gave a kinase still bound, per cent of control (MLTK (human)) of 100%, a kinase still bound, per cent of control (NEK3 (human)) of 65% and a kinase still bound, per cent of control (NEK5 (human)) of 100%. The kinase still bound, per cent of control (NTRK1 (human)) was 69%, the kinase still bound, per cent of control (OXSR1 (human)) was 80% and the kinase still bound, per cent of control (PKN3 (M.tuberculosis)) was 100%. For the same molecule, the kinase still bound, per cent of control (PLK3 (human)) was 94%, the kinase still bound, per cent of control (PTK2B (human)) was 90% and the kinase still bound, per cent of control (RAF1 (human)) was 97%. It also gave a kinase still bound, per cent of control [8] of 100%, a kinase still bound, per cent of control [9] of 99% and a kinase still bound, per cent of control (RIPK4 (human)) of 87%. For the same molecule, the kinase still bound, per cent of control (STK3 (human)) was 97%, the kinase still bound, per cent of control (TEK (human)) was 94% and the kinase still bound, per cent of control (TNNI3K (human)) was 15%. The kinase still bound, per cent of control (TRPM6 (human)) was 64%, the kinase still bound, per cent of control (TXK (human)) was 100% and the kinase still bound, per cent of control [10] was 95%.
